Laboratory results: US6573275B1, “Bicyclic amines” (Syngenta Limited, priority 1995, dated 2003)

System: peach aphid (Myzus persicae)
Test: Insecticidal test against peach aphid, infested Chinese cabbage leaves sprayed
Assay type: in vivo
Conditions: peach aphid (Myzus persicae) on Chinese cabbage leaves, sprayed with 500 ppm composition unless otherwise stated, mortality assessed after 3 days
Procedure: This Example illustrates the insecticidal properties of the compounds of Formula I. The activity of the compounds of Formula I was determined using a variety of pests. The pests were treated with a liquid composition containing 500 parts per million (ppm) by weight of the compound unless otherwise stated. The compositions were made by dissolving the compound in acetone and ethanol (50:50) mixture and diluting the solutions with water containing 0.05% by weight of a wetting agent sold under the trade name “SYNPERONIC” NP8 until the liquid composition contained the required concentration of the compound. “SYNPERONIC” is a Registered Trade Mark.
The test procedure adopted with regard to each pest was basically the same and comprised supporting a number of the pests on a medium which was usually a substrate, a host plant or a foodstuff on which the pests feed, and treating either or both the medium and the pests with the compositions. The mortality of the pests was then assessed at periods usually varying from two to five days after the treatment.
In this test Chinese cabbage leaves were infested with aphids, the infested leaves were sprayed with the test composition, and the mortality assessed after 3 days.

Compound | Score (grading of mortality)
N#Cc1ccc(N2C3CCC2CC(C#N)(c2cncc(Cl)c2)C3)cc1 (stereo not drawn) [Compound 105] | B (B indicates 40-79% mortality)
N#CC1(c2cncc(Cl)c2)CC2CCC(C1)N2CC=C(F)F (stereo not drawn) [Compound 106, exo-3-(5-chloropyrid-3-yl)-endo-3-cyano-8-(3,3-difluoroprop-2-en-1-yl)-8-azabicyclo[3.2.1]octane] | A (A indicates 80-100% mortality)
N#CC1(c2cncc(Cl)c2)CC2CCC(C1)N2CC(=O)O (stereo not drawn) [Compound 107] | A (A indicates 80-100% mortality)
N#CC1(c2cncc(Cl)c2)CC2CCC(C1)N2Cc1cc(Br)cc(Br)c1 (stereo not drawn) [Compound 108] | A (A indicates 80-100% mortality)
N#CC1(c2cncc(Cl)c2)CC2CCC(C1)N2Cc1ccc(F)c(Cl)c1 (stereo not drawn) [Compound 109, exo-3-(5-chloropyrid-3-yl)-endo-3-cyano-8-(3-chloro-4-fluorobenzyl)-8-azabicyclo[3.2.1]octane] | A (A indicates 80-100% mortality)
N#CC1(c2cncc(Cl)c2)CC2CCC(C1)N2C=O (stereo not drawn) [Compound 110, exo-3-(5-chloropyrid-3-yl)-endo-3-cyano-8-formyl-8-azabicyclo[3.2.1]octane] | A (A indicates 80-100% mortality)
CC(C)OC(=O)N1C2CCC1CC(C#N)(c1cncc(Cl)c1)C2 (stereo not drawn) [Compound 111] | A (A indicates 80-100% mortality)
N#CC1(c2cncc(Cl)c2)CC2CCC(C1)N2S(=O)(=O)c1ccccc1 (stereo not drawn) [Compound 112] | B (B indicates 40-79% mortality)
N#CC1(c2cncc(Cl)c2)CC2CCC(C1)N2Cc1c(F)cc(F)cc1F (stereo not drawn) [Compound 113] | A (A indicates 80-100% mortality)
N#CC1(c2cncc(Cl)c2)CC2CCC(C1)N2Cc1c(F)ccc(F)c1F (stereo not drawn) [Compound 114] | A (A indicates 80-100% mortality)
N#CC(c1ccccc1)N1C2CCC1CC(C#N)(c1cncc(Cl)c1)C2 (stereo not drawn) [Compound 115, exo-3-(5-chloropyrid-3-yl)-endo-3-cyano-8-(a-cyanobenzyl)-8-azabicyclo[3.2.1]octane] | A (A indicates 80-100% mortality)
COC(=O)N1C2CCC1CC(C#N)(c1cncc(Cl)c1)C2 (stereo not drawn) [Compound 116] | A (A indicates 80-100% mortality)
N#CC1(c2cncc(Cl)c2)CC2CCC(C1)N2Cc1ccccn1 (stereo not drawn) [Compound 117, exo-3-(5-chloropyrid-3-yl)-endo-3-cyano-8-(pyrid-2-ylmethyl)-8-azabicyclo[3.2.1]octane] | A (A indicates 80-100% mortality)
N#CC1(c2cncc(Cl)c2)CC2CCC(C1)N2Cc1cccnc1 (stereo not drawn) [Compound 118] | A (A indicates 80-100% mortality)
N#CC1(c2cncc(Cl)c2)CC2CCC(C1)N2Cc1ccncc1 (stereo not drawn) [Compound 119] | A (A indicates 80-100% mortality)
N#CC1(c2ccccn2)CC2CCC(C1)N2CCF (stereo not drawn) [Compound 120] | A (A indicates 80-100% mortality)
C[C@H](c1ccccc1)N1C2CCC1CC(C#N)(c1cncc(Cl)c1)C2 (stereo partly drawn) [Compound 121, (R)-exo-3-(5-chloropyrid-3-yl)-endo-3-cyano-8-(1-phenylethyl)-8-azabicyclo[3.2.1]octane] | A (A indicates 80-100% mortality)
C[C@@H](c1ccccc1)N1C2CCC1CC(C#N)(c1cncc(Cl)c1)C2 (stereo partly drawn) [Compound 122] | A (A indicates 80-100% mortality)
Cc1nc(CN2C3CCC2CC(C#N)(c2cncc(Cl)c2)C3)cs1 (stereo not drawn) [Compound 123, exo-3-(5-chloropyrid-3-yl)-endo-3-cyano-8-((2-methylthiazol-4-yl)methyl)-8-azabicyclo[3.2.1]octane] | A (A indicates 80-100% mortality)
Cc1noc(C)c1CN1C2CCC1CC(C#N)(c1cncc(Cl)c1)C2 (stereo not drawn) [Compound 124, exo-3-(5-chloropyrid-3-yl)-endo-3-cyano-8-((3,5-dimethylisoxazol-4-yl)methyl)-8-azabicyclo[3.2.1]octane] | A (A indicates 80-100% mortality)
N#CC1(c2cncc(Cl)c2)CC2CCC(C1)N2Cc1ccc(Cl)s1 (stereo not drawn) [Compound 125] | A (A indicates 80-100% mortality)
N#CC1(c2cncc(Cl)c2)CC2CCC(C1)N2c1ccc(C(F)(F)F)cn1 (stereo not drawn) [Compound 126] | C (C indicates less than 40% mortality)
N#CC1(c2cncc(Cl)c2)CC2CCC(C1)N2c1cccc(F)n1 (stereo not drawn) [Compound 128, exo-3-(5-chloropyrid-3-yl)-endo-3-cyano-8-(6-fluoropyrid-2-yl)-8-azabicyclo[3.2.1]octane] | A (A indicates 80-100% mortality)

Compound | Score (grading of mortality)
N#CC1(c2cncc(Cl)c2)CC2CCC(C1)N2c1ccc(F)cc1 (stereo not drawn) [Compound 129] | A (A indicates 80-100% mortality)
N#CC1(c2cncc(Cl)c2)CC2CCC(C1)N2CC(F)(F)C(F)(F)F (stereo not drawn) [Compound 130] | A (A indicates 80-100% mortality)
N#CC1(c2cncc(Cl)c2)CC2CCC(C1)N2CC(F)(F)C(F)F (stereo not drawn) [Compound 131] | A (A indicates 80-100% mortality)
N#CC1(c2cncc(Cl)c2)CC2CCC(C1)N2CC(F)(F)C(F)(F)C(F)(F)F (stereo not drawn) [Compound 132] | A (A indicates 80-100% mortality)
N#CC1(c2cncc(Cl)c2)CC2CCC(C1)N2CC(F)(F)C(F)(F)C(F)(F)C(F)F (stereo not drawn) [Compound 133] | A (A indicates 80-100% mortality)
CN1C2CCC1CC(C#N)(c1cncc(N)c1)C2 (stereo not drawn) [Compound 134, exo-3-(5-aminopyrid-3-yl)-endo-3-cyano-8-methyl-8-azabicyclo[3.2.1]octane] | A (A indicates 80-100% mortality)
N#CC1(c2cncc(Cl)c2)CC2CCC(C1)N2C(C(N)=O)c1ccccc1 (stereo not drawn) [Compound 135, exo-3-(5-chloropyrid-3-yl)-endo-3-cyano-8-(a-carbamylbenzyl)-8-azabicyclo[3.2.1]octane] | A (A indicates 80-100% mortality)
N#CC1(c2cncc(Cl)c2)CC2CCC(C1)N2c1cccc(C(F)(F)F)n1 (stereo not drawn) [Compound 136] | C (C indicates less than 40% mortality)
N#CC1(c2cncc(Cl)c2)CC2CCC(C1)N2c1cccc(Cl)n1 (stereo not drawn) [Compound 137] | C (C indicates less than 40% mortality)
N#CC1(c2cncc(Cl)c2)CC2CCC(C1)N2C(=S)S (stereo not drawn) [Compound 138, exo-3-(5-chloropyrid-3-yl)-endo-3-cyano-8-(mercaptothiocarbonyl)-8-azabicyclo[3.2.1]octane] | A (A indicates 80-100% mortality)
CC(C)(C)N1C2CCC1CC(C#N)(c1cncc(Cl)c1)C2 (stereo not drawn) [Compound 139, exo-3-(5-chloropyrid-3-yl)-endo-3-cyano-8-(tert-butyl)-8-azabicyclo[3.2.1]octane] | A (A indicates 80-100% mortality)
CCOC(=O)CCN1C2CCC1CC(C#N)(c1cncc(Cl)c1)C2 (stereo not drawn) [Compound 140, exo-3-(5-chloropyrid-3-yl)-endo-3-cyano-8-(2-(ethoxycarbonyl)ethyl)-8-azabicyclo[3.2.1]octane] | A (A indicates 80-100% mortality)
N#CC1(c2cncc(Cl)c2)CC2CCC(C1)N2CCC(=O)O (stereo not drawn) [Compound 141, exo-3-(5-chloropyrid-3-yl)-endo-3-cyano-8-(2-carboxyethyl)-8-azabicyclo[3.2.1]octane] | A (A indicates 80-100% mortality)
N#CC1(c2cncc(Cl)c2)CC2CCC(C1)N2CC(F)F (stereo not drawn) [Compound 142, exo-3-(5-chloropyrid-3-yl)-endo-3-cyano-8-(2,2-difluoroethyl)-8-azabicyclo[3.2.1]octane] | A (A indicates 80-100% mortality)
N#CC1(c2cncc(Br)c2)CC2CCC(C1)N2CC(F)(F)F (stereo not drawn) [Compound 143] | A (A indicates 80-100% mortality)
N#CC1(c2cncc(Cl)c2)CC2CCC(C1)N2C(=O)F (stereo not drawn) [Compound 144, exo-3-(5-chloropyrid-3-yl)-endo-3-cyano-8-(fluorocarbonyl)-8-azabicyclo[3.2.1]octane] | A (A indicates 80-100% mortality)
CN(C(=O)N1C2CCC1CC(C#N)(c1cncc(Cl)c1)C2)c1ccccc1 (stereo not drawn) [Compound 145] | A (A indicates 80-100% mortality)
CC(C)(C)NC(=O)N1C2CCC1CC(C#N)(c1cncc(Cl)c1)C2 (stereo not drawn) [Compound 146, exo-3-(5-chloropyrid-3-yl)-endo-3-cyano-8-(tert-butylcarbamyl)-8-azabicyclo[3.2.1]octane] | A (A indicates 80-100% mortality)
CN1C2CCC1CC(C#N)(c1cncc(I)c1)C2 (stereo not drawn) [Compound 147, exo-3-(5-iodopyrid-3-yl)-endo-3-cyano-8-methyl-8-azabicyclo[3.2.1]octane] | A (A indicates 80-100% mortality)
CN1C2CCC1CC(C#N)(c1cncc(O)c1)C2 (stereo not drawn) [Compound 148, exo-3-(5-hydroxypyrid-3-yl)-endo-3-cyano-8-methyl-8-azabicyclo[3.2.1]octane] | B (B indicates 40-79% mortality)
N#CC1(c2cncc(Cl)c2)CC2CCC(C1)N2C(=O)N1CCOCC1 (stereo not drawn) [Compound 149] | A (A indicates 80-100% mortality)
CC(C)N(C(=O)N1C2CCC1CC(C#N)(c1cncc(Cl)c1)C2)C(C)C (stereo not drawn) [Compound 150, exo-3-(5-chloropyrid-3-yl)-endo-3-cyano-8-(diisopropylcarbamyl)-8-azabicyclo[3.2.1]octane] | A (A indicates 80-100% mortality)
